Laboratory results reported in US20240382600A1, “BIFUNCTIONAL DEGRADERS COMPRISING A TEAD BINDER” (Novartis AG, priority 2021, published 2024).

Columns and labels:
[1] = molecular target: Avi-humanTEAD4^217-434 / Cy5 labeled humanYAP^60-100 (Homo sapiens (Human), UniProt Q15561); experiment: In-vitro biochemical TR-FRET assay (TEAD4/YAP); format: binding; conditions: 1 h at room temperature
Experimental: N-terminus Cy5 labeled humanYAP^60-100 (20 nM) was then added to this preparation. Compounds were dissolved at 10 mM in 100% DMSO and serial dilutions were made in 100% DMSO. The diluted compound solutions were incubated in white 384-well plates (Greiner Bio-One) for 1 h at room temperature with the above described mix. The final DMSO concentration present in the assay was 1%. […] The IC50 values were estimated by fitting the data by nonlinear fit regression (GraphPad Prism).

[2] = tested on: YAP-dependent transcription in SF268-MCAT_Luc_dox-i-shYAPLevy (Clone 13) cells; experiment: YAP reporter gene activity assay (MCAT-Luc), SF268; format: cell-based; conditions: Homo sapiens, SF-268; SF268 MCAT_Luc, 24 hrs
MKN-45/Ubc-luc cells = experiment: Proliferation assay (resazurin/AlamarBlue), MKN-45; format: cell-based; conditions: Homo sapiens; MKN-45, 72 hours
From the text: (§1) NCI-H2052 mesothelioma cells (RRID: CVCL_1518) bearing Hippo-pathway inactivating mutations upstream of YAP (homozygous deletion of LATS2 and mutation of NF2) were obtained from ATCC (American Type Culture Collection), while SF268 glioma cells (RRID: CVCL_1689) overexpressing YAP due to genomic amplification were obtained from the NCI (National Cancer Institute). MKN-45 gastric adenocarcinoma cells (RRID: CVCL_0434) genomically deleted for YAP were obtained from the JCRB (Japanese Collection of Research Bioresources) Cell Bank.
As a specificity control, MKN-45 cells were stably transduced with a Ubc-Luc reporter construct, in which constitutive expression of firefly luciferase is driven by the promoter of the ubiquitin C housekeeping gene.
(§2) Stock solutions of compounds were prepared at a concentration of 10 mM in DMSO and stored at 4° C. Where necessary to afford a full dose-response curve, the stock solutions were pre-diluted in DMSO to 1′000-fold the desired reduced start concentration. On the day after cell seeding, eleven 2-fold serial dilutions of each compound were dispensed directly into the cell assay plates using a HP 300D non-contact Digital Dispenser (TECAN). The final concentration of DMSO was normalized to 0.1% in all wells.
(§3) After incubation for 72 hours at 37° C., compound-mediated modulation of cell viability was quantified as follows. […] To enable differentiation of cytotoxic from cytostatic compound effects, the number of viable cells on the day of compound addition (day 0) was assessed in a separate cell plate and used to assess the extent of cell viability suppression as described in the following section.
(§4) For data analysis, the assay background value determined in wells containing medium, but no cells, was subtracted from all data points.
(§5) The extent of growth inhibition and potential cell kill was assessed by comparing the resorufin levels in compound-treated cells with those present at the time of compound addition. To this end, the following conditional concept was programmatically applied in HELIOS to calculate % growth (% G) for each compound-treated well: % G=(T−V0)/V0))*100 when T<V0, and % G=(T−V0)/(V−V0)))*100 when T≥V0, where V0 is the viability level at time of compound addition, while V and T represent vehicle-control and compound-treated viability levels, respectively, at the end of the compound incubation. 100%, 0% and −100% signify absence of growth inhibition, growth stasis, and complete cell kill, respectively. Compound concentrations leading to half-maximal growth inhibition (GI50) and residual cell viability at the highest tested compound concentration (Data(cmax), expressed in percent) were routinely calculated.

[3] = tested on: YAP-dependent transcription in NCI-H2052 Tet-On shYAP_2371 pLenti6 MCAT_Luc cells; experiment: YAP reporter gene activity assay (MCAT-Luc), NCI-H2052; format: cell-based; conditions: Homo sapiens, 24 hrs
[4] = tested on: SF268-MCAT_Luc_dox-i-shYAPLevy (Clone 13) cells; experiment: Proliferation assay (resazurin/AlamarBlue), SF268; format: cell-based; conditions: Homo sapiens, SF-268; SF268, 72 hours
From the text: as §1, §2, §3, §4, §5

[5] = tested on: MKN-45/Ubc-luc cells (unspecific inhibition of luciferase expression or activity); experiment: Reporter gene assay specificity control (Ubc-Luc), MKN-45; format: cell-based; conditions: Homo sapiens; MKN-45/Ubc-luc specificity control, 24 hrs
From the text: as §1
As a specificity control, MKN-45 cells were stably transduced with a Ubc-Luc reporter construct, in which constitutive expression of firefly luciferase is driven by the promoter of the ubiquitin C housekeeping gene. The resulting cell line, MKN-45/Ubc-luc, was selected and maintained in growth medium (RPMI 1640 (Amimed Cat #1-41F01-I), 2 mM L-Glutamine (Amimed Cat #5-10K50-H), 10% fetal calf serum (Amimed Cat #2-01F30-I Lot K08815P), 1% MEM Non-essential amino acids (Amimed Cat #5-13K00-H), 1× Penicillin/Streptomycin (Amimed Cat #4-01F00-H)) containing 1 μg/ml blasticidin (Gibco Cat #A11139-03).
as §2
The ability of compounds to inhibit YAP-dependent transcription was assessed in NCI-H2052 Tet-On shYAP_2371 pLenti6 MCAT_Luc and SF268-MCAT_Luc, dox-i-shYAPLevy (Clone 13) cells, while specificity (lack of unspecific inhibition of luciferase expression or activity) was assessed in MKN-45/Ubc-luc cells. The individual cell lines were seeded at 2′500 cells/20 μl/well into white-wall, clear-bottom 384-well plates (Greiner, Cat #781098) and incubated over night at 37° C. prior to addition of serial compound dilutions as described above. Following incubation for 24 hrs at 37° C., compound-mediated modulation of reporter-gene activity was quantified 5 min after addition 20 μL […] BrightGlo (Promega Cat #E2620), by measuring luminescence intensity on a multi-mode plate-reader (TECAN) with an integration time of 100 ms.
as §4

[6] = tested on: NCI-H2052 Tet-On shYAP_2371 pLenti6 MCAT_Luc cells; experiment: Proliferation assay (resazurin/AlamarBlue), NCI-H2052; format: cell-based; conditions: Homo sapiens; NCI-H2052, 72 hours
From the text: as §1, §2, §3, §4, §5

Avi-humanTEAD4^217-434 / Cy5 labeled humanYAP^60-100, sequence (Q15561 217-434): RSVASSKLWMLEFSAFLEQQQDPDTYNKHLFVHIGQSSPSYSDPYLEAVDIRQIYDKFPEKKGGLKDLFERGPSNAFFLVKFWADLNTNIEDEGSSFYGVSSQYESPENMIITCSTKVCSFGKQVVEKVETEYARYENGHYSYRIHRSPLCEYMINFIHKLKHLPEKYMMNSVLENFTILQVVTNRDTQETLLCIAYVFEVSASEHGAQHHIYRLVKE

| SMILES | IC50 [1] [nM] | IC50 [2] [nM] | GI50 (MKN-45/Ubc-luc cells) [nM] | IC50 [3] [nM] | IC50 [5] [nM] | GI50 [6] [nM] | GI50 [4] [nM] |
| --- | --- | --- | --- | --- | --- | --- | --- |
| COc1ccc(C(=O)N2CCC(CCC3CCN(C(=O)[C@H]4CC[C@H](NC[C@]5(c6ccccc6)Oc6cc(F)c(Cl)c(-c7c(C(N)=O)ccc(OC)c7F)c6[C@@H]5C)CC4)CC3)CC2)cc1N1CCC(=O)NC1=O (atropisomer, axis not shown) [Example 27, 2-((2S,3S,4S)-5-chloro-2-((((1r,4S)-4-(4-(2-(1-(3-(2,4-dioxotetrahydropyrimidin-1(2H)-yl)-4-methoxybenzoyl)piperidin-4-yl)ethyl)piperidine-1-carbonyl)cyclohexyl)amino)methyl)-6-fluoro-3-methyl-2-phenyl-2,3-dihydrobenzofuran-4-yl)-3-fluoro-4-methoxybenzamide] | 4 | 0.17 | > 2000 | 0.66 | > 2000 | 3.8 | 5 |
| COc1ccc(C(N)=O)c(-c2c(Cl)c(F)cc3c2[C@H](C)[C@@](CN[C@H]2CC[C@H](C(=O)N4CCC(CC5CCN(C(=O)COc6ccc(Cl)c(N7CCC(=O)NC7=O)c6)CC5)CC4)CC2)(c2ccccc2)O3)c1F (atropisomer, axis not shown) [Example 28, 2-((2S,3S,4S)-5-chloro-2-((((1r,4S)-4-(4-((1-(2-(4-chloro-3-(2,4-dioxotetrahydropyrimidin-1(2H)-yl)phenoxy)acetyl)piperidin-4-yl)methyl)piperidine-1-carbonyl)cyclohexyl)amino)methyl)-6-fluoro-3-methyl-2-phenyl-2,3-dihydrobenzofuran-4-yl)-3-fluoro-4-methoxybenzamide] | 2.7 | 0.92 | > 2000 | 4.4 | > 2000 | 16 | 31 |
| COc1ccc(C(N)=O)c(-c2c(Cl)c(F)cc3c2[C@H](C)[C@@](CN[C@H]2CC[C@H](C(=O)N4CCC(CC5CCN(C(=O)COc6ccc(F)c(N7CCC(=O)NC7=O)c6)CC5)CC4)CC2)(c2ccccc2)O3)c1F (atropisomer, axis not shown) [Example 29, 2-((2S,3S,4S)-5-chloro-2-((((1r,4S)-4-(4-((1-(2-(3-(2,4-dioxotetrahydropyrimidin-1(2H)-yl)-4-fluorophenoxy)acetyl)piperidin-4-yl)methyl)piperidine-1-carbonyl)cyclohexyl)amino)methyl)-6-fluoro-3-methyl-2-phenyl-2,3-dihydrobenzofuran-4-yl)-3-fluoro-4-methoxybenzamide] | 3.3 | 0.64 | > 200 | 3.8 | > 2000 | 13 | 17 |

Stronger by IC50 [1], values ahead:

| IC50 [1] [nM] | IC50 [2] [nM] | GI50 (MKN-45/Ubc-luc cells) [nM] | IC50 [3] [nM] | IC50 [5] [nM] | GI50 [6] [nM] | SMILES | GI50 [4] [nM] |
| --- | --- | --- | --- | --- | --- | --- | --- |
| 2.6 | 1.1 | > 200 | 6.9 | > 2000 | 27 | COc1ccc(OCC(=O)N2CCC(CC3CCN(C(=O)[C@H]4CC[C@H](NC[C@]5(c6ccccc6)Oc6cc(F)c(Cl)c(-c7c(C(N)=O)ccc(OC)c7F)c6[C@@H]5C)CC4)CC3)CC2)cc1N1CCC(=O)NC1=O (atropisomer, axis not shown) [Example 30, 2-((2S,3S,4S)-5-chloro-2-((((1r,4S)-4-(4-((1-(2-(3-(2,4-dioxotetrahydropyrimidin-1(2H)-yl)-4-methoxyphenoxy)acetyl)piperidin-4-yl)methyl)piperidine-1-carbonyl)cyclohexyl)amino)methyl)-6-fluoro-3-methyl-2-phenyl-2,3-dihydrobenzofuran-4-yl)-3-fluoro-4-methoxybenzamide] | 35 |
| 2.2 | 180 | > 2000 | 130 | > 2000 | 170 | COc1ccc(C(N)=O)c(-c2c(Cl)c(F)cc3c2[C@H](C)[C@@](CN[C@H]2CC[C@H](C(=O)O)CC2)(c2ccccc2)O3)c1F (atropisomer, axis not shown) [C-I, (1S,4r)-4-((((2S,3S,4S)-4-(6-carbamoyl-2-fluoro-3-methoxyphenyl)-5-chloro-6-fluoro-3-methyl-2-phenyl-2,3-dihydrobenzofuran-2-yl)methyl)amino)cyclohexane-1-carboxylic acid] | > 2000 |
| 1.6 | 3.1 | > 20000 | 120 | > 20000 | 310 | COc1ccc(C(=O)N2CCC(OC3CN(C(=O)[C@H]4CC[C@H](NC[C@]5(c6ccccc6)Oc6cc(F)c(Cl)c(-c7c(C(N)=O)ccc(OC)c7F)c6[C@@H]5C)CC4)C3)CC2)cc1N1CCC(=O)NC1=O (atropisomer, axis not shown) [Example 8, 2-((2S,3S,4S)-5-chloro-2-((((1r,4S)-4-(3-((1-(3-(2,4-dioxotetrahydropyrimidin-1(2H)-yl)-4-methoxybenzoyl)piperidin-4-yl)oxy)azetidine-1-carbonyl)cyclohexyl)amino)methyl)-6-fluoro-3-methyl-2-phenyl-2,3-dihydrobenzofuran-4-yl)-3-fluoro-4-methoxybenzamide] | 120 |
| 1.1 | 1.7 | > 20000 | 49 | > 20000 | 140 | COc1ccc(C(=O)N2CCC(OC3CCN(CCNC(=O)[C@H]4CC[C@H](NC[C@]5(c6ccccc6)Oc6cc(F)c(Cl)c(-c7c(C(N)=O)ccc(OC)c7F)c6[C@@H]5C)CC4)CC3)CC2)cc1N1CCC(=O)NC1=O (atropisomer, axis not shown) [Example 4, 2-((2S,3S,4S)-5-chloro-2-((((1r,4S)-4-((2-(4-((1-(3-(2,4-dioxotetrahydropyrimidin-1(2H)-yl)-4-methoxybenzoyl)piperidin-4-yl)oxy)piperidin-1-yl)ethyl)carbamoyl)cyclohexyl)amino)methyl)-6-fluoro-3-methyl-2-phenyl-2,3-dihydrobenzofuran-4-yl)-3-fluoro-4-methoxybenzamide] | 33 |
